Data on four molecules can be found in patent US5428139A, “Bicyclopolyazamacrocyclophosphonic acid complexes for use as radiopharmaceuticals” (The Dow Chemical Company, priority 1991, dated 1995).

Series [1] is described as follows: Percent metal as a complex (Sephadex column, ion exchange method). The settings on record: 1:1 ligand/metal, eluted with 4:1 saline (0.85% NaCl/NH4 OH). Type of series: physicochemical. The procedure: A stock ^153 SmCl3 solution was prepared by adding 2 μL of 3×10^-4 M ^153 SmCl3 in 0.1N HCl to 2 mL of a 3×10^-4 M SmCl3 carrier solution. Appropriate ligand solutions were then prepared in deionized water. The 1:1 ligand/metal complexes were then prepared by combining the ligands (dissolved in 100-500 μL of deionized water) with 2 mL of the stock ^153 SmCl3 solution, followed by through mixing to give an acidic solution (pH=2). The pH of the solution was then raised to 7.0 using 0.1N NaOH. The percent metal as a complex was then determined by passing a sample of the complex solution through a Sephadex™ G-50 column, eluting with 4:1 saline ([…]) and collecting 2×3 mL fractions. The amount of radioactivity in the combined elutions was then compared with that left on the resin (non-complexed metal is retained on the resin). […]
A solution of the ligand of Example 1 was prepared by dissolving 3.8 mg of ligand/0.517 mL of deionized water (pH=2). […] After thorough mixing, the percent metal as a complex was determined by passing a sample of the complex solution through a Sephadex™ column, eluting with 4:1 saline (0.85% NaCl/NH4 OH), and collecting 2×3 mL fractions. The amount of radioactivity in the combined elutions was then compared with that left on the resin. […] By this method complexation was determined to be 98%. […] The pH stability was then determined using the General Procedure above.

A short description of series [2]: Biodistribution: percent of injected dose in tissues. Type of series: in vivo, Sprague Dawley rats. To be noted: for % injected dose in bone: 100 μl complex i.v. via tail vein, bone estimated as femur x 25; for % injected dose in blood: blood assumed 7% of body weight; for % injected dose in muscle: muscle assumed 43% of body weight. How it is done:
Sprague Dawley rats were allowed to acclimate for five days then injected with 100 μl of the complex solution via a tail vein. The rats weighed between 150 and 200 g at the time of injection. After 30 min. the rats were killed by cervical dislocation and dissected. The amount of radioactivity in each tissue was determined by counting in a NaI scintillation counter coupled to a multichannel analyzer. The counts were compared to the counts in 100 μl standards in order to determine the percentage of the dose in each tissue or organ.
The percent dose in blood was estimated assuming blood to be 7% of the body weight. The percent dose in bone was estimated by multiplying the percent dose in the femur by 25. The percent dose in muscle was estimated assuming muscle to be 43% of the body weight.

The conditions of series [3]: patients with metastatic bone lesions; cited from earlier work.
Where [4] appears, read: Sprague Dawley rats, 30 min, average.
Setting [5] is: Sprague Dawley rats, tail vein, 30 min, average.
The mark [6] stands for this setting: rats, 30 min, % dose/G printed for bone to blood ratio.

In the case of `O=P(O)(O)CN1CCN(CP(=O)(O)O)Cc2cccc(n2)CN(CP(=O)(O)O)CC1.[153Sm]` [^153 Sm-PCTMP, complex of ^153 Sm-3,6,9,15-tetraazabicyclo[9.3.1]pentadeca-1(15),11,13-triene-3,6,9-trimethylenephosphonic acid], the “percent metal as a complex (complexation)” value in series [1] came out at 98%. Besides, the bone localization entry in series [2] (5:1 ligand to metal ratio) was “about 60%”. In series [2] (setting [4]), the “% injected dose in bone” value is 60%. Moreover, in series [2] (setting [5]), the “% injected dose in kidney” value turned out to be 0.38%, the “% injected dose in liver” value came to 2.80%, the “% injected dose in spleen” value came to 0.16% and the “% injected dose in blood” value came to 0.29%. Also, the “% injected dose in muscle” value in series [2] (setting [5]) came to 0.40%.

With `O=P(O)(O)CN1CCN(CP(=O)(O)O)Cc2cccc(n2)CN(CP(=O)(O)O)CC1.[166Ho]` [^166 Ho-PCTMP, complex of ^166 Ho-3,6,9,15-tetraazabicyclo[9.3.1]pentadeca-1(15),11,13-triene-3,6,9-trimethylenephosphonic acid], in series [2] (setting [4]), the “% injected dose in bone” value is listed as 43%. In addition, in series [2] (setting [5]), the “% injected dose in kidney” value stood at 0.33%, the “% injected dose in liver” value was determined as 3.55%, the “% injected dose in blood” value is on record as 0.12% and the “% injected dose in muscle” value is 0.34%.

As to `O=P(O)(O)CN1CCN(CP(=O)(O)O)Cc2cccc(n2)CN(CP(=O)(O)O)CC1.[90Y]` [^90 Y-PCTMP, complex of ^90 Y-3,6,9,15-tetraazabicyclo[9.3.1]pentadeca-1(15),11,13-triene-3,6,9-trimethylenephosphonic acid], the “bone to blood ratio” value in series [2] (% dose/G, rats, 30 min) came to 140. In addition, the “% injected dose in bone” value in series [2] (setting [4]) was 29%. In series [2] (setting [5]), the “% injected dose in kidney” value came to 0.36%, the “% injected dose in liver” value was 0.21%, the “% injected dose in blood” value came to 0.18% and the “% injected dose in muscle” value is 0.42%. Besides, in series [2] (setting [6]), the “bone to liver ratio” value was 76 and the “bone to muscle ratio” value was 400.

Take Strontium-89: in series [3], the blood levels result is given as “high” and the “lesion to normal bone ratios” value is “low”.
